From US10188633B2, “Identification of small molecules that facilitate therapeutic exon skipping” (The Regents of the University of California, priority 2011, dated 2019)
Where “and” joins values, the source holds several entries; their conditions need not be identical. Equal values may be shown once. Where a name gives a salt, the structure may show the parent alone.

Experiments:
[1] = system: exon skipping; assay: Counter screens, 16 point titrations and mdx mouse myotubes (validation of lead hits); assay type: cell-based
From the text: The cell line, which was adapted to allow the screening of thousands of compounds in multiple replicates, was obtained from Dr. Qi Lu. […]

[2] = system: DMD exon 51; assay: DMD exon 51 skipping in reprogrammed DMD patient fibroblasts fused to myotubes (GM05017, iDRM05017) with exon 51 AO; assay type: cell-based, human; conditions: compound added 24 h after AO for two days; nested RT-PCR exons 43-52
Experimental: (A) Differentiated primary mouse myotubes were transfected either with 100 nM 2′-O-methyl M23D, which targets exon 23 splice donor region or mock transfected for 24 hours after which the transfection reagent was removed, and myotubes were treated with different concentrations of Dantrolene for 48 hours. Nested RT-PCR was performed on cDNA between exons 20-26, as previously described. The 901 bp band is the full-length mRNA product, the 688 bp mRNA product is a single skip of exon 23, and the 550 bp mRNA product is a double skip of exons 22 and 23. (B) Mouse Dmd exon 23-skipped transcript levels were quantified using a taqman assay with primer-probe sets spanning the splice junction created by an exon 23 skip (22-24 join) relative to primers amplifying the splice junction of exons 22 and 23 (representing the full length mRNA), as previously described. […] Error bars represent standard deviation of qRT-PCR triplicates. (C) Patient derived fibroblasts with exon 45-50 deletion (confirmed by microarray, see FIG. 6) were immortalized with lentiviral hTERT and transduced with inducible lentiviral MyoD [26]. Cells were grown to confluence, induced for MyoD activity, and fused for 10 days in low serum differentiation media. On Day 7, h51AON [5′ […] 3′] (SEQ ID NO:2) (same sequence as Pro051) within human exon 51 was added at concentrations indicated. Twenty-four hours later Dantrolene or vehicle was added. Cells were harvested 2 days later and total RNA isolated. RT-PCR amplified a fragment of cDNA from exons 42-53 which was followed by a nested PCR to generate a fragment spanning exons 43-52. The 540 bp product is the full length DMD mRNA species and the 307 bp product indicates the exon 51 skip isoform. Quantitation was performed using the Agilent Bioanalyzer and represented as the skip/full-length mRNA ratio.
Patient fibroblasts with a DMD exon 45-50 deletion were immortalized and transduced with a lenti-viral vector expressing inducible MyoD to create iDRMs (inducibly directly reprogrammable myotubes, specifically iDRM05017s). iDRM05017s were induced for MyoD activity and then cultured for 10 days in fusion media. On Day 7, AO was added for twenty-four hours then removed and Piperacetazine, Trifluoperazine Dihydrochloride, Fluphenazine Dihydrochloride or vehicle (Dimethyl sulfoxide; DMSO) were added in fresh media. After two days total RNA was harvested, cDNA reverse transcribed with a DMD specific primer in exon 54, and exon 51 skipping was detected by nested RT-PCR spanning exons 43-52. Quantitation of exon 51 skipping was performed using the Agilent Bioanalyzer and is represented as the proportion of exon 51 skipping. Error bars represent the standard deviation (SD) of 3 independent wells.
Patient fibroblasts were transduced with HTERT and an inducible MyoD vector [26]. […] Exon 51 skipping activity was assessed in the context of transfecting an exon 51 2′-O-methyl AO with equivalent sequence to Pro051 seven days after fusion. This AO is directed at an exonic splicing enhancer (ESE) sequence within exon 51. The AO was removed prior to addition of dantrolene and cultures were harvested two days later. A nested RT-PCR was performed between DMD exons 43-52 and levels of exon 51 skipping were determined by quantitating capillary electrophoresis separated fragments representing skipped and unskipped DMD mRNA.

[3] = system: human DMD exon 50 GFP based reporter; assay: BioMol high throughput screen in Ex50-GFP reporter C2C12 myoblasts, with or without AON6; assay type: cell-based, mouse; conditions: compound 10 uM; for Average Fluorescence (n = 3): average of 3 replicate plates; for Average Fluorescence (n = 6): average of 6 replicate plates
From the text: Small molecule libraries were screened for exon skipping promoting activity in C2C12 myoblasts expressing a human DMD exon 50 GFP based reporter. […] In the reporter cells, successful skipping of DMD exon 50 creates in-frame GFP expression. Number of cells that were fluorescing was quantified using a high content cell imager in 384 well plate format. Fluorescence was normalized by subtracting the average fluorescence value of the carrier (DMSO) controls. Fluorescence readouts are plotted for the BioMol library screen both with (+AO) and without (−AO) from Source Plate 1 (containing the Orphan Ligand, Ion Channel, Enzyme Inhibitor, and Endocannabanoid libraries, n=300). Each point for the DMSO controls, all compounds, and the Top 5% from Source Plate 1 (n=15) represents the average normalized fluorescence of 6 replicates in the −AO screen and 3 replicates in the +AO screen. […] Individual points for dantrolene are plotted with the bold horizontal line indicating the median. The short horizontal lines interspersed among the data points indicate 1, 2, and 3 standard deviations away from the DMSO treatment mean fluorescence.
In contrast to prior screens aimed at identifying small molecules which impact exon skipping, our screen is unique at least because it relies on robust quantitation of a skipping reporter in the context of a muscle lineage cell in the presence and absence of suboptimal AO. These screens were performed using a mouse muscle cell line (C2C12) expressing a human DMD exon 50 GFP based reporter selected to minimize experimental variation and sensitivity in the context of an automated and quantitative fluorescent scanning system.
AO was added prior to small molecule incubation in an effort to identify molecules that facilitate AO skipping rather than AO delivery. The fluorescence induced by each compound was normalized to a vehicle controls per plate to correct for plate to plate variability. Fluorescence was averaged across replicate plates (n=6 without AO screen, n=3 with AO screen). Compounds were rank ordered based on average intensity of fluorescence and difference between the without AO and with AO screen (FIG. 1 and Table 2).
A stable clone was generated from C2C12 cells transfected with a human exon 50 DMD GFP reporter (ex50GFP) that has been previously described. Ex50GFP reporter myoblasts were seeded into uncoated 384 well plates and were incubated for 4 hours either with or without 300 nM of 2′-O-methyl phosphorothioate AON6 [5′[…] 3′ (SEQ ID NO:1)] targeting the human exon 50 splice donor site. Cells were transfected with AON6 using the FUGENE (Roche) transfection reagent per manufacturer's instructions. Following AON6 incubation, each component of the BioMol library (n=503) was screened at 10 uM concentration with a final concentration of the DMSO carrier being 1%. Forty-eight hours later fluorescence was measured using the MicroXpress high content imager and analyzed using MetaXpress. Immediately preceding imaging, DNA was stained with Hoescht for 30 min. The BioMol screen without AO (−AO) was performed in 6 replicates, and the with AO (+AO) screen was performed in 3 replicates. For the screen analysis raw fluorescence values were normalized to carrier controls present on each plate by subtracting the values. Negative fluorescence values were set to 0. The data from each compound were averaged from all replicates. For secondary screening by 12 or 16 point dose response, Ex50GFP myoblasts or C2C12 cells without the reporter were seeded on uncoated 384 well plates. A sub-optimal dose of AON6 targeting DMD exon 50 was added for 4 hours.

[4] = With AON6 screen, 48 h, fluorescence normalized by subtracting DMSO carrier controls
[5] = With AON6 screen, 48 h, normalized to DMSO carrier controls
[6] = Without AON6 screen, 48 h, normalized to DMSO carrier controls

Compound: COC(=O)[C@H]1[C@H]2C[C@@H]3c4[nH]c5cc(OC)ccc5c4CCN3C[C@H]2C[C@@H](OC(=O)c2cc(OC)c(OC)c(OC)c2)[C@@H]1OC [Reserpine]
- efficacy in counter screen and on mdx mouse myotubes [1]: showing efficacy in counter screen and on mdx mouse myotubes

Compound: O=C(O)[C@@H]1[C@H]2C[C@H]3c4[nH]c5ccccc5c4CCN3C[C@@H]2CC[C@@H]1O [Yohimbinic acid]
- AO directed DMD exon 51 skipping [2]: enhance AO directed DMD exon 51 skipping

Compound: CC1=CC(=O)c2ccccc2C1=O [Menadione]
- AO directed DMD exon 51 skipping [2]: enhances AO directed DMD exon 51 skipping

Compound: O=C(Nc1ccc([N+](=O)[O-])cc1Cl)c1cc(Cl)ccc1O [Niclosamide]
- efficacy in counter screen and on mdx mouse myotubes [1]: showing efficacy in counter screen and on mdx mouse myotubes

Compound: OCCN1CCN(CCCN2c3ccccc3Sc3ccc(C(F)(F)F)cc32)CC1 [Fluphenazine dihydrochloride]
- AO directed DMD exon 51 skipping [2]: enhance AO directed DMD exon 51 skipping

Compound: O=c1[nH]c2ccccc2n1C1CCN(CCCC(c2ccc(F)cc2)c2ccc(F)cc2)CC1 [PIMOZIDE]
- efficacy in counter screen and on mdx mouse myotubes [1]: showing efficacy in counter screen and on mdx mouse myotubes

Compound: CCCCN(CCCC)CCC(O)c1cc2c(Cl)cc(Cl)cc2c2cc(C(F)(F)F)ccc12.Cl (centres unmarked) [Halofantrine hydrochloride]
- efficacy in counter screen and on mdx mouse myotubes [1]: showing efficacy in counter screen and on mdx mouse myotubes

Compound: Ryanodine
- Fluorescence Plate 1 [3, 4]: 7.93
- Fluorescence Plate 2 [3, 5]: 28.86
- Fluorescence Plate 3 [3, 5]: 13.31
- Average Fluorescence (n = 3) ([3]; With AON6 screen): 16.70
- AO directed DMD exon 51 skipping [2]: enhance AO directed DMD exon 51 skipping

Compound: CN(C)CCCn1cc(C2=C(c3c[nH]c4ccccc34)C(=O)NC2=O)c2ccccc21 [GF 109203X]
- efficacy in counter screen and on mdx mouse myotubes [1]: showing efficacy in counter screen and on mdx mouse myotubes
- Fluorescence Plate 1 [3, 6]: 22.19
- Fluorescence Plate 2 [3, 6]: 15.01
- Fluorescence Plate 3 [3, 6]: 13.67
- Fluorescence Plate 4 [3, 6]: 66.78
- Fluorescence Plate 5 [3, 6]: 64.46
- Fluorescence Plate 6 [3, 6]: 66.48
- Average Fluorescence (n = 6) ([3]; Without AON6 screen): 41.76

Compound: COc1ccc2c(c1)CN(C)CCS2 [RyCal S107]
- AO directed DMD exon 51 skipping [2]: enhance AO directed DMD exon 51 skipping

Compound: CN1CCN(CCCN2c3ccccc3Sc3ccc(C(F)(F)F)cc32)CC1 [Trifluoperazine dihydrochloride]
- AO directed DMD exon 51 skipping [2]: enhance AO directed DMD exon 51 skipping

Compound: COC(=O)Nc1nc2cc(Sc3ccccc3)ccc2[nH]1 [Fenbendazole]
- efficacy in counter screen and on mdx mouse myotubes [1]: showing efficacy in counter screen and on mdx mouse myotubes

Compound: COC(=O)[C@H]1[C@H]2C[C@H]3c4[nH]c5ccccc5c4CCN3C[C@H]2CC[C@@H]1O [rauwolscine hydrochloride]
- AO directed DMD exon 51 skipping [2]: enhance AO directed DMD exon 51 skipping

Compound: Cc1c2ccncc2c(C)c2c1[nH]c1ccccc12 [Ellipticine]
- efficacy in counter screen and on mdx mouse myotubes [1]: showing efficacy in counter screen and on mdx mouse myotubes

Compound: CCOC(=O)Oc1c(OC)cc(C(=O)O[C@@H]2C[C@@H]3CN4CCc5c([nH]c6cc(OC)ccc56)[C@H]4C[C@@H]3[C@H](C(=O)OC)[C@H]2OC)cc1OC [Syrosingopine]
- efficacy in counter screen and on mdx mouse myotubes [1]: showing efficacy in counter screen and on mdx mouse myotubes

Compound: CC(=O)c1ccc2c(c1)N(CCCN1CCC(CCO)CC1)c1ccccc1S2 [piperacetazine]
- AO directed DMD exon 51 skipping [2]: enhance AO directed DMD exon 51 skipping

Compound: CC(N/C(=N\C#N)Nc1ccncc1)C(C)(C)C (centres unmarked)
- Fluorescence Plate 1 [3, 4]: 15.64
- Fluorescence Plate 2 [3, 5]: 27.20
- Fluorescence Plate 3 [3, 5]: 11.56
- Average Fluorescence (n = 3) ([3]; With AON6 screen): 18.13

Compound: INDIRUBIN
- Fluorescence Plate 3 [3, 6]: 6.43 and 6.44
- Fluorescence Plate 5 [3, 6]: 3.42 and 6.60
- Average Fluorescence (n = 6) ([3]; Without AON6 screen): 17.88 and 8.26

Compound: NCCNS(=O)(=O)c1cccc2cnccc12 [H-9]
- Fluorescence Plate 1 [3, 4]: 18.09
- Fluorescence Plate 2 [3, 5]: 19.17
- Fluorescence Plate 3 [3, 5]: 13.25
- Average Fluorescence (n = 3) ([3]; With AON6 screen): 16.84
